Columns and labels:
[1] = Extruder barrel temperature profile: ibuprofen content and degradation products after melt extrusion (Example 24); type: physicochemical; details: up to a maximum extruder setting of 140 C
Description: The method set out in Example 1 was used. The extruder screw speed was set to a constant 600 rpm. The powder feed rate was also set to a constant value. to give a constant feed rate of powder into the extruder. The product of each trial was analysed to determine the level of the two major ibuprofen degradation products: 2-(4-isobutyrylphenyl) propionic acid (BTS 47711) and 4-isobutylacetophenone (BTS 40655).

[2] = Extruder temperature/throughput matrix: ibuprofen content and degradation products after melt extrusion (Example 25); type: physicochemical; details: 95 C to 130 C, 102 kg/hour to 216 kg/hour
Description: Further trials using the method of Example 1 but under process conditions as shown in Table 3 were conducted to determine the maximum output from the extruder by varying barrel temperature and powder feed rates, as shown in Table IIA.10.
Once the required extruder barrel temperature had been reached, the extruder was started and allowed to run for 15 minutes in order to equilibrate prior to sample collection.
Samples were collected for analysis to determine the level of degradation products formed.

ibuprofen degradation as a result of the melt extrusion process [1]: no evidence of ibuprofen degradation | degradation of ibuprofen over extruder barrel temperatures and throughputs [2]: no evidence of degradation
Compound: CC(C)Cc1ccc(C(C)C(=O)O)cc1 (racemic) [ibuprofen]

— US20040219220A1, “Therapeutic agents” (priority 2001, published 2004)
